Patent publication US20180021270A1, “METHODS FOR THE TREATMENT OF CANCER USING COENZYME Q10 IN COMBINATION WITH IMMUNE CHECKPOINT MODULATORS” (Berg LLC, priority 2016, published 2018)

Key:
[1] = tested on: murine Balb/c PBMCs; test: Frequency of PD-1 expressing cells within murine PBMCs; format: cell-based, mouse; conditions: 0-800 μM, 24 hours, dose dependent, unstimulated and PHA-stimulated cells
Procedure: The frequency of PD-1 expressing cells within PHA-stimulated or unstimulated murine Balb/c PBMCs was also evaluated. Cells were concurrently treated with Coenzyme Q10 (0, 12.5, 50, 200, 400 or 800 μM) for 24 hours and evaluated by flow cytometry using surface marker antibody for αCD3 and viability stains Annexin V/7AAD. Viable cells were identified by plotting Annexin V vs. 7 AAD, and gated viable cells were subjected to CD3 vs. PD-1 staining. Two experiments using two different pools of Balb/c PBMCs and one experiment using C57B1/6 PBMCs were conducted.

[2] = Body weight of C57BL/6 mice with Pan02 tumors; format: in vivo, mouse; conditions: 25, 50 or 100 mg/kg i.p. twice per day for 21 days
Procedure: The body weight of C57BL/6 mice implanted with murine Pan02 pancreatic cancer cells and treated with Coenzyme Q10 was also evaluated. Tumors with mean volume of 100 mm^3 were treated twice per day with vehicle control or Coenzyme Q10 at 25, 50 or 100 mg/kg administered intraperitoneally for 21 days. Body weight was measured every two days for the first 5 days, and then twice per week.

[3] = tested on: PD-L1 protein on the surface of mouse syngeneic tumor cell lines; test: PD-L1 protein on the surface of mouse syngeneic tumor cells; format: cell-based; conditions: with or without INFγ, IC50 amount of Coenzyme Q10, 24 hours
Procedure: The effect of Coenzyme Q10 on the level of PD-L1 protein on the surface of the mouse syngeneic tumor cells was also evaluated. Mouse syngeneic tumor cell lines from different tissue types were cultured with or without interferon γ (INFγ) in the presence or absence of their corresponding IC50 amount of Coenzyme Q10 at 37° C. for 24 hours.

[4] = tested on: IL-10; test: Cytokine ELISA in PBMC supernatants; format: cell-based, human; conditions: during PHA activation, various concentrations of Coenzyme Q10
Procedure: (§1) Cytokines were measured in the PBMCs according to the manufacturer's protocol for R&D Quantikine ELISA kits (R&D Systems, Inc., Minneapolis, Minn.) specific to each cytokine. PBMCs were collected from 3 donors (D003F, D004F and D005F).

[5] = tested on: IL-2; test: Cytokine ELISA in PBMC supernatants; format: cell-based, human; conditions: during PHA activation, various concentrations of Coenzyme Q10
Procedure: as §1

[6] = tested on: interferon-γ (IFN-γ); test: Cytokine ELISA in PBMC supernatants; format: cell-based, human; conditions: during PHA activation, various concentrations of Coenzyme Q10
Procedure: as §1

[7] = tested on: B16F10 skin melanoma cells; test: Cell viability (CellTiter-Fluor) of mouse syngeneic tumor cell line; format: cell-based; conditions: B16F10, 72 hours, 37° C.
Procedure: (§2) The sensitivity of mouse syngeneic tumor cell lines to Coenzyme Q10 was evaluated in vitro. Six mouse syngeneic tumor cell lines from different tissue types were exposed to increasing concentrations of Coenzyme Q10 (0-25 mM) at 37° C. for 72 hours. Cell viability was measured using CellTiter-Fluor kit (Promega, Madison, Wis.). Graphs and IC50 values were calculated using GraphPad Prism using data for at least three independent experiments. Mouse syngeneic tumor cell lines evaluated were Lewis lung carcinoma (LL2), hepatoma (Hepa1-6) skin melanoma (B16F10), colon cancer (CT26), mammary gland adenocarcinoma (EMT6/P), and renal adenocarcinoma (Renca). As shown in FIGS. 24A-24F, Coenzyme Q10 reduced viability of all of the tumor cell lines in a dose dependent manner.

[8] = tested on: LL/2 Lewis lung carcinoma cells; test: as above; format: cell-based; conditions: LL/2, 72 hours, 37° C.
Procedure: as §2

[9] = tested on: Hepa1-6 hepatoma cells; test: as above; format: cell-based; conditions: Hepa1-6, 72 hours, 37° C.
Procedure: as §2

[10] = tested on: EMT6/P mammary gland adenocarcinoma cells; test: as above; format: cell-based; conditions: 72 hours, 37° C.
Procedure: as §2

[11] = tested on: Renca renal adenocarcinoma cells; test: as above; format: cell-based; conditions: 72 hours, 37° C.
Procedure: as §2

[12] = tested on: CT26 colon cancer cells; test: as above; format: cell-based; conditions: CT26, 72 hours, 37° C.
Procedure: as §2

[13] = tested on: murine Pan02 pancreatic cancer cells; test: Pan02 pancreatic tumor growth in C57BL/6 mice; format: in vivo, mouse; conditions: Day 21
Procedure: C57BL/6 mice were implanted with murine Pan02 pancreatic cancer cells and treated with different doses of Coenzyme Q10 to evaluate the effects of Coenzyme Q10 on tumor growth. C57B1/6 female mice were inoculated with 3×10^7 Pan02 cells. When tumors reached a mean volume of 100 mm^3, animals were randomized into four groups and treated with vehicle control or Coenzyme Q10 (25, 50 or 100 mg/kg) by intraperitoneal (i.p.) injection twice daily for 21 days. Tumor volume was measured twice per week.

[14] = tested on: human PBMCs (T cells); test: Viability of immune cell subpopulations within PBMCs (Annexin V/7 AAD flow cytometry); format: cell-based; conditions: 0-800 μM Coenzyme Q10, 24 hours, PHA-stimulated or unstimulated PBMCs
Procedure: PBMCs isolated from healthy human donor leukopaks were isolated and cryopreserved. To study the effect of Coenzyme Q10, cells were thawed, rested overnight and treated with or without phytohemagglutinin (PHA). PHA is a lectin protein found in plants which activates T cells by inducing mitosis. Various concentrations of Coenzyme Q10 (0, 12.5, 50, 200, 400 or 800 μM) were added to the cells at the same time. 24 hours to 72 hours post-treatment, frequency and viability of immune cell subpopulations was evaluated, as well as proliferative potential, cytokine secretion, and inhibitory receptor surface expression.
The viability of human immune cell subpopulations within PHA-stimulated or unstimulated PBMCs concurrently treated with Coenzyme Q10 was also determined. Cells were treated with 0, 12.5, 50, 200, 400 or 800 μM Coenzyme Q10 for 24 hours. Cell populations and viability was determined by flow cytometry using combinational staining of surface markers using Annexin V/7 AAD stains. Cells from 5 healthy donors were evaluated. Total, cytotoxic and helper T cell viability after treatment with increasing Coenzyme Q10 concentrations show T cell viability increased in response to Coenzyme Q10. FIG. 17A. […]

## COC1=C(OC)C(=O)C(C/C=C(\C)CC/C=C(\C)CC/C=C(\C)CC/C=C(\C)CC/C=C(\C)CC/C=C(\C)CC/C=C(\C)CC/C=C(\C)CC/C=C(\C)CCC=C(C)C)=C(C)C1=O [Coenzyme Q10]
[1]
  Frequency of PD-1 negative CD3 positive T cells: increased
[2]
  Effect on body weight: no significant effect
[3]
  Level of PD-L1 protein on the cell surface: did not have any effect
[4]
  IL-10 level in supernatant: dose-dependently decreased
[5]
  IL-2 level in supernatant: increased
[6]
  IFN-γ level in supernatant: increased
[7]
  IC50: 1360 µM
[8]
  IC50: 237 µM
[9]
  IC50: 912 µM
[10]
  IC50: 2200 µM
[11]
  IC50: 3750 µM
[12]
  IC50: 1910 µM
[13]; 25 mg/kg i.p. twice daily, p=0.2583 to control
  Percentage of Tumor Growth Inhibition: 7%
[13]; 50 mg/kg i.p. twice daily, p=0.1255 to control
  Percentage of Tumor Growth Inhibition: 19%
[13]; 100 mg/kg i.p. twice daily, p=0.0529 to control
  Percentage of Tumor Growth Inhibition: 26%
[14]
  T cell viability (total, cytotoxic and helper T cells): increased
